Columns and labels:
[1] = target: YES1 kinase (Homo sapiens, UniProt P07947); test: YES1 protein kinase inhibitory activity assay (HTRF); type: biochemical; details: for IC50: HTRF, YES1 kinase, ATP 10 µM; for inhibition of the Yes target (in words): summary statement on the assay results
Procedure: In this experiment, the capability of the compound MRANK-106 of the present disclosure to inhibit kinase activity was assessed by an HTRF method using a drug screening system based on the YES1 kinase.
Table 3-1. Information about reagents and consumables
The enzymatic activity conditions and HTRF system formulation are shown in Table 3-3; the experimental conditions for the kinase activity assay are shown in Table 3-4. Table 3-3. HTRF system formulation
Table 3-4. The experimental conditions for the kinase activity assay
The test compound MRANK-106 was dissolved in DMSO, and the solution was vortexed and shaken for thorough mixing. The solution was serially diluted 3-fold with DMSO, with the initial concentration being 503 nM.
① A 2× ATP/substrate solution and a 2× kinase solution were formulated using a kinase reaction buffer.
② 50 nL of the compound dilution was transferred to a 384 detection plate using Echo 655. After centrifugation, 2.5 µL of a 2× kinase solution was added to the 384 detection plate. The plate was centrifuged at 1000 rpm for 1 min and incubated at 25 °C for 10 min.
② 2.5 µL of the 2× substrate and ATP solution was added to the 384 detection plate, and the plate was centrifuged at 1000 rpm for 1 min and incubated at 25 °C for 60 min.
④ A 2× XL665 and antibody detection reagent was formulated using a detection buffer.
⑤ 5 µL of a kinase detection reagent was added to the detection plate, and the plate was incubated at 25 °C. The plate was centrifuged at 1000 rpm for 1 min and incubated at 25 °C for 1 h.
⑥ The fluorescence signals at 620 nm (Cryptate) and 665 nm (XL665) were read using a BMG high-throughput drug-screening multi-mode microplate reader.
With the reading of the negative control set as an inhibition rate of 0% and the reading of the positive control set as an inhibition rate of 100%, the inhibition rate of each test solution was calculated using the following formula: [formula] • Datapositive control: the average of the positive control well values • Datanegative control : the average of the negative control well values
The IC50 (half maximal inhibitory concentration) of the compound was obtained using the following nonlinear fitting formulas: Y = Bottom + (Top−Bottom)/(1+10^(∧)((LogIC50−X)*HillSlope)) [formula] • X: the log value of the compound concentration • Y: the inhibition rate (% inh) of the compound
The Z' factor calculation equation: Z′ = 1−3(SDmin+SDmax)/(AVEmax−AVEmin) [formula] where: • Min is the positive control Data value, and Max is the negative control DMSO Data value; • SD stands for standard deviation, and AVE stands for average.

[2] = target: Wee1 kinase (Homo sapiens, UniProt P30291); test: WEE1 protein kinase inhibitory activity assay (ADP-GLO luminescence); type: biochemical; details: for IC50: Wee1 10 ng/well, ATP 10 µM, 3 h, 37 °C; for inhibition of the Weel target (in words): summary statement on the assay results
Chain of Wee1 kinase (P30291 whole entry): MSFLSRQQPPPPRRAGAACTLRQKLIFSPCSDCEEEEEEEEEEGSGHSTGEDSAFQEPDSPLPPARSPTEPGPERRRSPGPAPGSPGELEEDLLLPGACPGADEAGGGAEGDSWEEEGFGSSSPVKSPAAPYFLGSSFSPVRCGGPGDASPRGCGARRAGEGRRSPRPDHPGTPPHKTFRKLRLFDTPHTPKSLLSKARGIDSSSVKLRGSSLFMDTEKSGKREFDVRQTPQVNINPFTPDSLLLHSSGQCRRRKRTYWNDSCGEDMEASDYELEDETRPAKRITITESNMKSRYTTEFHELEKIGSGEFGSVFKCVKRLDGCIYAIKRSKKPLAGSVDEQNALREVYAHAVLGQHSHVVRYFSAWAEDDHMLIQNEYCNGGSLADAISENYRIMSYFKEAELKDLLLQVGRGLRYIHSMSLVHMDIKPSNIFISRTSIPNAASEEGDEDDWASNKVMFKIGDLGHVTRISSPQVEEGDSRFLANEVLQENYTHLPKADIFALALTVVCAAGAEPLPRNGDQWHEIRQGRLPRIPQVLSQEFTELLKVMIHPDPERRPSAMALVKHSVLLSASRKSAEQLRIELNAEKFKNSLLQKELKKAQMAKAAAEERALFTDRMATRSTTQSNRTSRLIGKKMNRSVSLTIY
Procedure: The influence of the compound MRANK-106 of the present disclosure on the kinase activity of Weel was assessed using an in vitro kinase reaction system.
Table 2-1. Information about reagents and consumables
① 1× kinase buffer: A 5× kinase buffer was diluted with ddH2O to make a 1× kinase buffer. Table 2-3. The reagent components added to the 1× kinase buffer
③ 5× enzyme working solution: The optimization of the enzyme concentration had been completed in previous work, and the concentration of the reagent used in the screening is shown in Table 2-4. A 5× enzyme working solution of the enzyme was formulated using the 1× kinase buffer.
④ Compound formulation: A 10 mM mother liquor was formulated using DMSO, aliquoted, and then stored at -20 °C. Immediately before use, the mother liquor was thawed, diluted with DMSO to 1 mM, serially diluted 4-fold to 10 concentration points, and then 40-fold diluted with the 1× kinase buffer to give a 2.5× working solution. Table 2-4. The experimental conditions for the kinase activity assay
After the above reagents were formulated and equilibrated to room temperature, 4 µL of the diluted solution of the compound to be tested and 2 µL of the formulated enzyme solution were added to reaction wells. After shaking and centrifugation, the plate was incubated at room temperature for 15 min, and 4 µL of the ATP solution was then added to start a kinase reaction. After 3 h of reaction at 37 °C, 10 µL of an ADP-GLO reagent was added. After thorough mixing, the mixture was left to react at room temperature for 40 min, and 20 µL of a detection reagent was then added. After 30 min of reaction at room temperature, the luminescence signals were detected using a SpectraMax L instrument. Two independent duplicate assays were performed. The inhibition rate of each well was calculated based on all activity wells and background signal wells, with an average calculated for duplicate wells. Meanwhile, the inhibition rate was plotted using the professional graphing and analysis software PRISM 9.0, and the IC50 was calculated.
The inhibition rates of the compounds to be tested against the kinase activity of Wee1 were calculated using the following formula: Inhibition rate% = (Lumvehicle−Lumcompound)/(Lumvehicle−Lumblank) × 100% [formula] • Lumcompound: the luminescence of the sample treatment groups • Lumvehicle: the luminescence of the solvent control group • Lumblank: the luminescence of the blank group

Chain of YES1 kinase (P07947 whole entry): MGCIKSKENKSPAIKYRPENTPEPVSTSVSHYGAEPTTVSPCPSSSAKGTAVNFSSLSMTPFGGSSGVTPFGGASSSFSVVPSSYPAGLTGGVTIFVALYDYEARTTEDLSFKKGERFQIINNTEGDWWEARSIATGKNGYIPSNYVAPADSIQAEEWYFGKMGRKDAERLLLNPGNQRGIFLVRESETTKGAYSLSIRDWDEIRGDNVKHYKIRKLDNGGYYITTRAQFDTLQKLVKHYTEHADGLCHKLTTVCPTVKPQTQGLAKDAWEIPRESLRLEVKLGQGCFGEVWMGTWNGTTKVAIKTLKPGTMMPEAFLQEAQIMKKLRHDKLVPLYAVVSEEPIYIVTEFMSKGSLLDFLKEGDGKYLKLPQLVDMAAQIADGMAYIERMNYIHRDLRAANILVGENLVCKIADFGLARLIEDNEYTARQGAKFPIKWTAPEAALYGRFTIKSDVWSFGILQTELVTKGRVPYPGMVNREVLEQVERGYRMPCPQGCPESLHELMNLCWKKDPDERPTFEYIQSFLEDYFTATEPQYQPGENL

Question: Which IC50 [1] does the source give for [2H]C([2H])([2H])N1CCC(Oc2ccc(Nc3ncc4c(=O)n5n(c4n3)-c3cccc(n3)[C@@](C)(O)CCC=CC5)cc2C)CC1 (single isomer, unassigned) [Compound 171B] here?
Answer: The IC50 was 346 nM.

Question: And the IC50 [2]?
Answer: Its IC50 is 5.4 nM.

Question: Cc1cc(Nc2ncc3c(=O)n4n(c3n2)-c2cccc(n2)C(C)(O)CC/C=C\C4)ccc1CN1CCN(C)CC1 (single isomer, unassigned) [Compound 219A] was tested. Which IC50 [2] did it give?
Answer: The IC50 was 13.1 nM.

Question: For Cc1cc(Nc2ncc3c(=O)n4n(c3n2)-c2cccc(n2)C(C)(O)CC/C=C\C4)ccc1OC1CC2CN(C)CC2C1 (single isomer, unassigned) [Compound 224A], which IC50 [2] is on record?
Answer: Its IC50 is 12.8 nM.

Question: Cc1cc(Nc2ncc3c(=O)n4n(c3n2)-c2cccc(n2)C(C)(O)CCC=CC4)ccc1NC1CC2CCC(C1)N2C (single isomer, unassigned) [Compound 225A] was tested. Which IC50 [2] did it give?
Answer: Its IC50 is 20.4 nM.

Question: For Cc1cc(Nc2ncc3c(=O)n4n(c3n2)-c2cccc(n2)[C@@](C)(O)CCCCC4)ccc1OC1CCN(C)CC1 [Compound 29, (S)-12-hydroxy-12-methyl-2-((3-methyl-4-((1-methylpiperidin-4-yl)oxy)phenyl)amino)-7,8,9,10,11,12-hexahydro-5H-13,17-(azeno)pyrimido[4',5':3,4]pyrazolo[1,2-a][1,2]diazacyclotridecin-5-one], which IC50 [2] is on record?
Answer: Its IC50 is 67 nM.

Question: For Cc1cc(Nc2ncc3c(=O)n4n(c3n2)-c2cccc(n2)[C@@](C)(O)CCC=CC4)ccc1OC1CCN(C)CC1 [Compound 134, (S,Z)-12-hydroxy-12-methyl-2-((3-methyl-4-((1-methylpiperidin-4-yl)oxy)phenyl)amino)-7,10,11,12-tetrahydro-5H-13,17-(azeno)pyrimido[4',5':3,4]pyrazolo[1,2-a][1,2]diazacyclotridecin-5-one], which IC50 [1] is on record?
Answer: The IC50 was 68.9 nM.

Question: What about the “inhibition of the Yes target (in words)” value [1] of the same molecule?
Answer: Its value is “strongly inhibited”.

Question: And the IC50 [2]?
Answer: The IC50 was 21 nM.

Question: And the “inhibition of the Weel target (in words)” value [2]?
Answer: Its value is “strongly inhibited”.

Question: What does the source list for CCOP1(=O)CCN(c2ccc(Nc3ncc4c(=O)n5n(c4n3)-c3cccc(n3)C(C)(O)CCC=CC5)cc2F)CC1 (stereo not drawn) [Compound 180, (Z)-2-((4-(4-ethoxy-4-oxido-1,4-azaphosphinan-1-yl)-3-fluorophenyl)amino)-12-hydroxy-12-methyl-7,10,11,12-tetrahydro-5H-13,17-(azeno)pyrimido[4',5':3,4]pyrazolo[1,2-a][1,2]diazacyclotridecin-5-one]?
Answer: IC50 [1]: 52.5 nM; inhibition of the Yes target (in words) [1]: strongly inhibited; inhibition of the Weel target (in words) [2]: strongly inhibited

Question: Which results are given for CCOP1(=O)CCN(c2ccc(Nc3ncc4c(=O)n5n(c4n3)-c3cccc(n3)C(C)(O)CCC=CC5)cc2)CC1 (stereo not drawn) [Compound 181, (Z)-2-((4-(4-ethoxy-4-oxido-1,4-azaphosphinan-1-yl)phenyl)amino)-12-hydroxy-12-methyl-7,10,11,12-tetrahydro-5H-13,17-(azeno)pyrimido[4',5':3,4]pyrazolo[1,2-a][1,2]diazacyclotridecin-5-one]?
Answer: IC50 [1]: 117 nM; IC50 [2]: 33.2 nM

Question: For Cc1cc(Nc2ncc3c(=O)n4n(c3n2)-c2cccc(n2)C(C)(O)CC/C=C\C4)ccc1O[C@@H]1CCN(C)C1 (stereo partly drawn) [Compound 183, (R,Z)-12-hydroxy-12-methyl-2-((3-methyl-4-(((R)-1-methylpyrrolidin-3-yl)oxy)phenyl)amino)-7,10,11,12-tetrahydro-5H-13,17-(azeno)pyrimido[4',5':3,4]pyrazolo[1,2-a][1,2]diazacyclotridecin-5-one], which IC50 [2] is on record?
Answer: The IC50 was 16.1 nM.

Question: Which IC50 [1] does the source give for CN1CCN(C(=O)c2ccc(Nc3ncc4c(=O)n5n(c4n3)-c3cccc(n3)C(C)(O)CC/C=C\C5)cc2)CC1 [Compound 185, (R,Z)-12-hydroxy-12-methyl-2-((4-(4-methylpiperazine-1-carbonyl)phenyl)amino)-7,10,11,12-tetrahydro-5H-13,17-(azeno)pyrimido[4',5':3,4]pyrazolo[1,2-a][1,2]diazacyclotridecin-5-one] here?
Answer: Its IC50 is 129 nM.

Question: How did the IC50 [2] turn out when Cc1cc(Nc2ncc3c(=O)n4n(c3n2)-c2cccc(n2)C(C)(O)CC/C=C\C4)ccc1O[C@H]1CCN(C)C1 (stereo partly drawn) [Compound 186, (R,Z)-12-hydroxy-12-methyl-2-((3-methyl-4-(((S)-1-methylpyrrolidin-3-yl)oxy)phenyl)amino)-7,10,11,12-tetrahydro-5H-13,17-(azeno)pyrimido[4',5':3,4]pyrazolo[1,2-a][1,2]diazacyclotridecin-5-one] was run?
Answer: The IC50 was 18.7 nM.

Question: How did the IC50 [1] turn out when Cc1cc(Nc2ncc3c(=O)n4n(c3n2)-c2cccc(n2)C(C)(O)CCC=CC4)ccc1CN1CCN(C)CC1=O (stereo not drawn) [Compound 199, (Z)-12-hydroxy-12-methyl-2-((3-methyl-4-((4-methyl-2-oxopiperazin-1-yl)methyl)phenyl)amino)-7,10,11,12-tetrahydro-5H-13,17-(azeno)pyrimido[4',5':3,4]pyrazolo[1,2-a][1,2]diazacyclotridecin-5-one] was run?
Answer: Its IC50 is 59.1 nM.

Question: What about the “inhibition of the Yes target (in words)” value [1] of the same molecule?
Answer: Its value is “strongly inhibited”.

Question: What about the “inhibition of the Weel target (in words)” value [2] of the same molecule?
Answer: Its value is “strongly inhibited”.

Question: Cc1cc(Nc2ncc3c(=O)n4n(c3n2)-c2cccc(n2)C(C)(O)CCC=CC4)ccc1OC1CCN(CC(F)(F)F)CC1 (stereo not drawn) [Compound 206, (Z)-12-hydroxy-12-methyl-2-((3-methyl-4-((1-(2,2,2-trifluoroethyl)piperidin-4-yl)oxy)phenyl)amino)-7,10,11,12-tetrahydro-5H-13,17-(azeno)pyrimido[4',5':3,4]pyrazolo[1,2-a][1,2]diazacyclotridecin-5-one] was tested. Which IC50 [1] did it give?
Answer: Its IC50 is 130 nM.

Question: Which IC50 [1] does the source give for CN1CC2CC(Oc3ccc(Nc4ncc5c(=O)n6n(c5n4)-c4cccc(n4)C(C)(O)CCC=CC6)cc3C(F)(F)F)CC2C1 (stereo not drawn) [Compound 223, (Z)-12-hydroxy-12-methyl-2-((4-((2-methyloctahydrocyclopenta[c]pyrrol-5-yl)oxy)-3-(trifluoromethyl)phenyl)amino)-7,10,11,12-tetrahydro-5H-13,17-(azeno)pyrimido[4',5':3,4]pyrazolo[1,2-a][1,2]diazacyclotridecin-5-one] here?
Answer: The IC50 was 21.8 nM.

Question: And the “inhibition of the Yes target (in words)” value [1]?
Answer: The value was “strongly inhibited”.

Question: What about the IC50 [2] of the same molecule?
Answer: Its IC50 is 18.7 nM.

Question: What about the “inhibition of the Weel target (in words)” value [2] of the same molecule?
Answer: Its value is “strongly inhibited”.

Question: Which IC50 [1] does the source give for CN(C)S(=O)(=O)c1ccc2c(c1)/C(=C/c1cc3c([nH]1)CCCC3)C(=O)N2 [SU6656] here?
Answer: Its IC50 is 43 nM.

Source: patent EP4711366A1, “PYRIMIDO MACROHETEROCYCLIC COMPOUND AS WEE1-YES DUAL-TARGET INHIBITOR AND USE THEREOF” (Mindrank AI Ltd., priority 2023, dated 2024)
